Results reported in US10485844B2, “Methods for treating severe atopic dermatitis by administering an IL-4R inhibitor” (Regeneron Pharmaceuticals, Inc., priority 2016, dated 2019).
Entries after “also recorded” stand apart in the source; their conditions may differ.

How the values were obtained:
[1] = system: pediatric patients with moderate-to-severe AD (adolescents) or severe AD (children); experiment: Phase 2a open-label ascending-dose study of dupilumab in pediatric AD (efficacy and safety); format: in vivo, human; settings: for patients who achieved IGA 0-1 / peak pruritus NRS improved by / baseline EASI improved by: Week 12; for baseline EASI improved by: after repeated weekly doses; for reduction in EASI score from baseline: week 2
Experimental: This Example describes a phase 2a, multicenter, open-label, ascending-dose, sequential-cohort study (NCT02407756) which included adolescents (12-17 years) with moderate-to-severe AD and children (6-11 years) with severe AD, uncontrolled by topical medications. Patients received 2 mg/kg or 4 mg/kg single-dose subcutaneous dupilumab with 8 weeks follow-up, followed by 4 weekly 2 mg/kg or 4 mg/kg doses.
This was conducted as a phase 2a, multicenter, open-label, ascending dose, sequential cohort study investigating the safety, tolerability, pharmacokinetics (PK), immunogenicity, and efficacy of single-dose and repeat-doses of subcutaneously administered (SC) dupilumab in pediatric patients with moderate-to-severe AD (for adolescents ≥12 to <18 years of age) or severe AD (for children ≥6 to <12 years of age) that was not adequately controlled by topical treatments.
Two sequential ascending SC dose cohorts were planned: dose cohort 1 (2 mg/kg) and dose cohort 2 (4 mg/kg) up to a maximum dose of 300 mg. Within each dose cohort, approximately 36 to 40 patients were planned to be enrolled in 2 age subsets: subset A (adolescents ≥12 to <18 years of age) and subset B (children ≥6 to <12 years of age). Enrollment and study dosing started with cohort 1A (2 mg/kg, adolescent age subset) and proceeded in sequence to cohort 1B (2 mg/kg, children ≥6 to <12 years of age subset), cohort 2A (4 mg/kg, adolescent age subset), and cohort 2B (4 mg/kg, children ≥6 to <12 years of age subset); a safety review of data from the previous cohort(s) was performed before proceeding to the next cohort.
The study consisted of a screening period (day −35 to day −1), a baseline visit, Part A (including a single-dose treatment followed by an 8-week semi-dense PK sampling period), and Part B (including a 4-week repeat-dose treatment period [4 weekly doses] followed by an 8-week follow-up period).
Sterile dupilumab drug product 150 mg/mL was provided in an aqueous buffered vehicle, pH 5.0. It was supplied in a 5-mL vial containing 2.5 mL (150 mg/mL) with a withdrawable volume of 2.0 mL or 300 mg of dupilumab. Study drug was administered SC by the investigator or other qualified study personnel at the following dose and dosing schedules: • For dose cohort 1: 2 mg/kg at day 1 as a single dose in Part A, then weekly at day 1 to week 3 in Part B as repeat doses • For dose cohort 2: 4 mg/kg at day 1 as a single dose in Part A, then weekly at day 1 to week 3 in Part B as repeat doses
The primary objective was characterizing the PK profiles of dupilumab in pediatric AD patients aged ≥6 to <18 years. The secondary endpoints were: • Incidence of TEAEs • Percent change from baseline in Eczema Area and Severity Index (EASI) • Percent change from baseline in SCORing Atopic Dermatitis (SCORAD) score • Percent change from baseline in Pruritus Numerical Rating Scale (NRS) • Percentage of patients with an IGA score of 0 or 1 • Change from baseline in % BSA affected by AD Study Variables and Procedures
Safety and tolerability was assessed by vital signs, physical examinations, clinical laboratory tests, and clinical evaluations. Patients were asked to monitor all adverse events (AEs) experienced from the time of informed consent/assent until their last study visit. Serum samples were collected for assay of dupilumab levels, and PK parameters were calculated using the dupilumab concentration data. Serum samples were collected for assay of ADA, and exploratory analyses. Efficacy was assessed during the study at specified clinic visits using the Pruritus NRS, SCORAD, and EASI that measure the extent and severity of AD, and the IGA that rates the overall severity of AD.

[2] = Functional dupilumab concentrations in serum, two 16-week phase 3 monotherapy studies; format: in vivo, human; settings: for mean functional concentration of dupilumab in serum: monotherapy
Experimental: The studies were multicenter, randomized, double-blind, placebo-controlled studies of subcutaneously administered dupilumab in 1379 adult patients; each had duration of 16 weeks (NCT02277743 and NCT02277769). Patients were randomized 1:1:1 to placebo, dupilumab 300 mg every week (qw), and dupilumab 300 mg every 2 weeks (q2w); patients randomized to dupilumab received a loading dose of 600 mg. Presented here are functional dupilumab concentrations measured in serum from blood samples at various pharmacokinetic time-points and analyzed using descriptive statistics.

For “dupilumab: fully human anti-IL-4R antibody; heavy chain SEQ ID NO: 9, light chain SEQ ID NO: 10”, the “patients who achieved IGA 0-1” value ([1]; adolescent 2 mg cohort) was 10%, the “peak pruritus NRS improved by” value ([1]; adolescent 2 mg cohort) was 30.8% and the “baseline EASI improved by” value ([1]; adolescent 2 mg cohort) was 66.4%. The “patients who achieved IGA 0-1” value ([1]; adolescent 4 mg cohort) was 35%, the “peak pruritus NRS improved by” value ([1]; adolescent 4 mg cohort) was 37.6% and the “baseline EASI improved by” value ([1]; adolescent 4 mg cohort) was 69.7%. For the same substance, the “reduction in EASI score from baseline” value ([1]; adolescent patients, single dose 2 mg/kg) was 34%, the “reduction in EASI score from baseline” value ([1]; adolescent patients, single dose 4 mg/kg) was 51% and the “patients who achieved IGA 0-1” value ([1]; children 2 mg/kg cohort) was 16.7%. For the same substance, the “peak pruritus NRS improved by” value ([1]; children 2 mg/kg cohort) was 41.6%, the “baseline EASI improved by” value ([1]; children 2 mg/kg cohort) was 76.2% and the “patients who achieved IGA 0-1” value ([1]; children 4 mg cohort) was 21.1%. The “peak pruritus NRS improved by” value ([1]; children 4 mg cohort) was 39.6%, the “baseline EASI improved by” value ([1]; children 4 mg cohort) was 63.4% and the “reduction in EASI score from baseline” value ([1]; children, single dose 2 mg/kg) was 37%. The “reduction in EASI score from baseline” value ([1]; children, single dose 4 mg/kg) was 33%, the safety and tolerability ([1]; single and repeated weekly doses of 2 mg/kg and 4 mg/kg, both pediatric age groups) was “No new safety signals; also recorded: generally safe and well tolerated” and the “ratio (qw:q2w) of mean functional concentrations” value ([2]; Week 16) was 2.4. For the same substance, the “mean functional concentration of dupilumab in serum” value ([2]; dupilumab 300 q2w (600 mg loading dose), Week 16) was ~75 mg/L, the “mean functional concentration of dupilumab in serum” value ([2]; dupilumab 300 qw (600 mg loading dose), Week 16) was 180 mg/L and the “share of the Week 12 Ctrough reached by Week 4” value ([2]; q2w dose, 600 mg loading dose) was ~80%. The “share of the Week 12 Ctrough reached by Week 4” value ([2]; qw dose) was ~67%.
